Experimental data reported in ChEMBL document CHEMBL4507266, “Data for DCP probe BAY-784” (2021).

How the values were obtained:
[1] = test system: Phosphatidylinositol 4,5-bisphosphate 3-kinase catalytic subunit alpha isoform (Homo sapiens), P42336 [M1043I]; conditions: Compound concentration 1000.0 nM
[2] = test system: ALK tyrosine kinase receptor (Homo sapiens), Q9UM73 [L1196M]; conditions: Compound concentration 1000.0 nM
[3] = biological target: Serine/threonine-protein kinase RIO3 (Homo sapiens) (UniProt O14730); conditions: Compound concentration 1000.0 nM
[4] = biological target: Tyrosine-protein kinase Fyn (Homo sapiens) (UniProt P06241); conditions: Compound concentration 1000.0 nM
[5] = biological target: Ribosomal protein S6 kinase alpha-3 (Homo sapiens) (UniProt P51812); conditions: Compound concentration 1000.0 nM
[6] = biological target: 1-phosphatidylinositol 3-phosphate 5-kinase (Homo sapiens) (UniProt Q9Y2I7); conditions: Compound concentration 1000.0 nM
[7] = biological target: Dual specificity protein kinase CLK4 (Homo sapiens) (UniProt Q9HAZ1); conditions: Compound concentration 1000.0 nM
[8] = biological target: Fibroblast growth factor receptor 4 (Homo sapiens) (UniProt P22455); conditions: Compound concentration 1000.0 nM
[9] = biological target: Tyrosine-protein kinase receptor UFO (Homo sapiens) (UniProt P30530); conditions: Compound concentration 1000.0 nM
[10] = biological target: Atypical kinase COQ8B, mitochondrial (Homo sapiens) (UniProt Q96D53); conditions: Compound concentration 1000.0 nM
[11] = biological target: Tyrosine-protein kinase CSK (Homo sapiens) (UniProt P41240); conditions: Compound concentration 1000.0 nM
[12] = biological target: Serine/threonine-protein kinase N1 (Homo sapiens) (UniProt Q16512); conditions: Compound concentration 1000.0 nM
Chain of Serine/threonine-protein kinase N1 (Homo sapiens) (Q16512 2-942 limits assumed): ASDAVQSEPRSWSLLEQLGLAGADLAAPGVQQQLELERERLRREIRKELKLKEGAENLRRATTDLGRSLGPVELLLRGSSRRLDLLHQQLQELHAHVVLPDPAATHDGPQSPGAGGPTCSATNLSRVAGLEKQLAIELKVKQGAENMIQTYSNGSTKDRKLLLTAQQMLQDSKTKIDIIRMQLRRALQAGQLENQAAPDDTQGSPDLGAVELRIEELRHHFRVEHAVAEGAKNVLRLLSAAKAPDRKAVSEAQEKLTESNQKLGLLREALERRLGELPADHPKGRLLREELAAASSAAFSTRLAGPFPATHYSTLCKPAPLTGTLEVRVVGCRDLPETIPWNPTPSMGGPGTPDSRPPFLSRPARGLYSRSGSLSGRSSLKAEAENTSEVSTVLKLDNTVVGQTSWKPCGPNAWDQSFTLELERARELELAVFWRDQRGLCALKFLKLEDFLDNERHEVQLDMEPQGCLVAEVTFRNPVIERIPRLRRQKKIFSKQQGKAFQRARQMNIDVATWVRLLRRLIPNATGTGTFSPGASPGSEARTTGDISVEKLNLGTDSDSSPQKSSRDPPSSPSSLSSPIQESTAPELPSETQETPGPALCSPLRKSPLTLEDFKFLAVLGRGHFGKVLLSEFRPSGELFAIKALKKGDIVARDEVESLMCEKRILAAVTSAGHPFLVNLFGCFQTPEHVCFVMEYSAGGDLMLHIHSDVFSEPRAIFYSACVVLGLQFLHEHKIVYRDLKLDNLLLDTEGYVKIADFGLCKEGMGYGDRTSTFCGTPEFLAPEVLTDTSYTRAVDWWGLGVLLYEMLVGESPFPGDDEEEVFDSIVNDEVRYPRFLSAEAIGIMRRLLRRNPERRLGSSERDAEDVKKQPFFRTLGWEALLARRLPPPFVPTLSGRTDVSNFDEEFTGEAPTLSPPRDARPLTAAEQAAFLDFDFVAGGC

[13] = biological target: Serine/threonine-protein kinase 38 (Homo sapiens) (UniProt Q15208); conditions: Compound concentration 1000.0 nM
Chain of Serine/threonine-protein kinase 38 (Homo sapiens) (Q15208 2-465 limits assumed): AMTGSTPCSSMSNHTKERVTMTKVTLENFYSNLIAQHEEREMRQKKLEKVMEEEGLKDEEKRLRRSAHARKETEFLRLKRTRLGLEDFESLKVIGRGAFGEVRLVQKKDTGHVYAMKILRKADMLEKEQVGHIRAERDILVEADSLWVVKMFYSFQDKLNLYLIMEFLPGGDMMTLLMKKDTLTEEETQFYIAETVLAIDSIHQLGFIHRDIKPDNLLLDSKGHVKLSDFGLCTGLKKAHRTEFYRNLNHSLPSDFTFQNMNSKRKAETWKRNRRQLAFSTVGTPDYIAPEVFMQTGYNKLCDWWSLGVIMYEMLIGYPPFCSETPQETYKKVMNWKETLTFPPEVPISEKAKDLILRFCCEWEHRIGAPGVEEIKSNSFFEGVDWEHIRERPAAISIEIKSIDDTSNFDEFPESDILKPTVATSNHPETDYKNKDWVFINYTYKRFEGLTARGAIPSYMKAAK

[14] = biological target: Phosphatidylinositol 4,5-bisphosphate 3-kinase catalytic subunit beta isoform (Homo sapiens) (UniProt P42338); conditions: Compound concentration 1000.0 nM
[15] = biological target: Leukocyte tyrosine kinase receptor (Homo sapiens) (UniProt P29376); conditions: Compound concentration 1000.0 nM
Chain of Leukocyte tyrosine kinase receptor (Homo sapiens) (P29376 whole entry): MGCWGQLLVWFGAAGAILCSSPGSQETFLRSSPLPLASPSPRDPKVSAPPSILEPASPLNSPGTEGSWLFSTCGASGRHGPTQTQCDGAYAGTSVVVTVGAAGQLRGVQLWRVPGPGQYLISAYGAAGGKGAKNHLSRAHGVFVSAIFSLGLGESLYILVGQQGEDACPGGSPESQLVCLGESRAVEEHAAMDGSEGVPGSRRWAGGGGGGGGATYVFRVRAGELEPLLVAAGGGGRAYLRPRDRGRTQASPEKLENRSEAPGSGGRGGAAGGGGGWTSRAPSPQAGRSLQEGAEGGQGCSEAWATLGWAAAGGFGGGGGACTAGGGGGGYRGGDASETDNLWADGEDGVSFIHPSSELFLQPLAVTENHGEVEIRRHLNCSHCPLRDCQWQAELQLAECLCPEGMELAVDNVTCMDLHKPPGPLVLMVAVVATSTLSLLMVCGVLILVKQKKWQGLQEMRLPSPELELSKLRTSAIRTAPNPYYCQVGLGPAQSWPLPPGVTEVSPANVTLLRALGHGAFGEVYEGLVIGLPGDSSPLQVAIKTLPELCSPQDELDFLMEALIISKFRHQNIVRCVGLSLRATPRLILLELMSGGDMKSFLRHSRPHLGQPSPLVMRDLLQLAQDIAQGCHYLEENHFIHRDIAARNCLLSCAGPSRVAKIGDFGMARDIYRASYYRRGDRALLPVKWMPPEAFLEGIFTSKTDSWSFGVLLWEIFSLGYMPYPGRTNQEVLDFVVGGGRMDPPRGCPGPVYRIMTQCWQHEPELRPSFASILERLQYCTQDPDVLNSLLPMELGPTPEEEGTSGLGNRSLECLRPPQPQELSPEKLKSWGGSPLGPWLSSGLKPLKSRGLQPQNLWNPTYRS

[16] = test system: ALK tyrosine kinase receptor (Homo sapiens), Q9UM73 [C1156Y]; conditions: Compound concentration 1000.0 nM
[17] = biological target: Tyrosine-protein kinase JAK1 (Homo sapiens) (UniProt P23458); conditions: Compound concentration 1000.0 nM
[18] = biological target: Serine/threonine-protein kinase 16 (Homo sapiens) (UniProt O75716); conditions: Compound concentration 1000.0 nM
[19] = biological target: Tyrosine-protein kinase Blk (Homo sapiens) (UniProt P51451); conditions: Compound concentration 1000.0 nM
[20] = biological target: Serine/threonine-protein kinase 24 (Homo sapiens) (UniProt Q9Y6E0); conditions: Compound concentration 1000.0 nM
[21] = biological target: Cyclin-dependent kinase-like 5 (Homo sapiens) (UniProt O76039); conditions: Compound concentration 1000.0 nM
[22] = biological target: Dual specificity protein kinase CLK1 (Homo sapiens) (UniProt P49759); conditions: Compound concentration 1000.0 nM
Chain of Dual specificity protein kinase CLK1 (Homo sapiens) (P49759 whole entry, looked up): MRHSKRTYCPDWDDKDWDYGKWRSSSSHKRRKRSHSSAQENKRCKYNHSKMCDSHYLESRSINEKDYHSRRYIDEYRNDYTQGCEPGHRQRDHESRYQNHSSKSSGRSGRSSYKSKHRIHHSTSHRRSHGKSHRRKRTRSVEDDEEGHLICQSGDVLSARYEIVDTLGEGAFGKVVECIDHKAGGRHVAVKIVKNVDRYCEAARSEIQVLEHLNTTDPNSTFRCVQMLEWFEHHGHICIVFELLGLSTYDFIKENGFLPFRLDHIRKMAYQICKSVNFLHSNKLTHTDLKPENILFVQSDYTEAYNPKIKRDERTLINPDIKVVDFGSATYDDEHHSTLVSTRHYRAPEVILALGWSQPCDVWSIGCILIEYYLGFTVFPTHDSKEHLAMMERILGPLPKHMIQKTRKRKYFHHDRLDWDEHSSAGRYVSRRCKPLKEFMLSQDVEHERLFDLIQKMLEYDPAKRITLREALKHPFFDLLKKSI

[23] = biological target: Mitogen-activated protein kinase kinase kinase 14 (Homo sapiens) (UniProt Q99558); conditions: Compound concentration 1000.0 nM
[24] = biological target: Dual specificity protein kinase CLK2 (Homo sapiens) (UniProt P49760); conditions: Compound concentration 1000.0 nM
[25] = test system: Tyrosine-protein kinase ABL1 (Homo sapiens), P00519 [H396P]; conditions: Compound concentration 1000.0 nM
[26] = biological target: Homeodomain-interacting protein kinase 2 (Homo sapiens) (UniProt Q9H2X6); conditions: Compound concentration 1000.0 nM
[27] = biological target: 3-phosphoinositide-dependent protein kinase 1 (Homo sapiens) (UniProt O15530); conditions: Compound concentration 1000.0 nM
[28] = biological target: Fibroblast growth factor receptor 2 (Homo sapiens) (UniProt P21802); conditions: Compound concentration 1000.0 nM
Chain of Fibroblast growth factor receptor 2 (Homo sapiens) (P21802 22-821 limits assumed): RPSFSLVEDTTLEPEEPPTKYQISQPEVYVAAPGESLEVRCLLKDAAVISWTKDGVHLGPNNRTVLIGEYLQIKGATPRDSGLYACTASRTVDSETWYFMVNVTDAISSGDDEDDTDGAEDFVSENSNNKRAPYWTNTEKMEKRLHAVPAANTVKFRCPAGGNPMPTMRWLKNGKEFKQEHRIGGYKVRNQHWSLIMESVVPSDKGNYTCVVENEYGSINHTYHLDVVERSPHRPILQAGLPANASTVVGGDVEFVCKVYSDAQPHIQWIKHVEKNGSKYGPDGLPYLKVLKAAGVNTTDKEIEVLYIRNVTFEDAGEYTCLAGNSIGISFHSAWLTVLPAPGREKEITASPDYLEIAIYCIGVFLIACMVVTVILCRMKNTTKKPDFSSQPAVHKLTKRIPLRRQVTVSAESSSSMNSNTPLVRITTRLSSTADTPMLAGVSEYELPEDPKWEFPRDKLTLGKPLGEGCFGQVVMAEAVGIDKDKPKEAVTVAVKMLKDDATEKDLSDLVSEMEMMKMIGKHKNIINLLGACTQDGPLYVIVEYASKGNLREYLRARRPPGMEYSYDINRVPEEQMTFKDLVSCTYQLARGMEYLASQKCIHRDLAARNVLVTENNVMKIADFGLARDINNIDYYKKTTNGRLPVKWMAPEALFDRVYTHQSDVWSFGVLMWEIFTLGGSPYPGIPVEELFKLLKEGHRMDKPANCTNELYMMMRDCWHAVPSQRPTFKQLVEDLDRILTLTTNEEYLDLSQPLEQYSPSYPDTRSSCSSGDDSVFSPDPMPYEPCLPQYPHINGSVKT

[29] = biological target: Serine/threonine-protein kinase STK11 (Homo sapiens) (UniProt Q15831); conditions: Compound concentration 1000.0 nM
[30] = test system: Tyrosine-protein kinase ABL1 (Homo sapiens), P00519 [F317L]; conditions: Compound concentration 1000.0 nM
[31] = biological target: Muscle, skeletal receptor tyrosine-protein kinase (Homo sapiens) (UniProt O15146); conditions: Compound concentration 1000.0 nM
Chain of Muscle, skeletal receptor tyrosine-protein kinase (Homo sapiens) (O15146 whole entry): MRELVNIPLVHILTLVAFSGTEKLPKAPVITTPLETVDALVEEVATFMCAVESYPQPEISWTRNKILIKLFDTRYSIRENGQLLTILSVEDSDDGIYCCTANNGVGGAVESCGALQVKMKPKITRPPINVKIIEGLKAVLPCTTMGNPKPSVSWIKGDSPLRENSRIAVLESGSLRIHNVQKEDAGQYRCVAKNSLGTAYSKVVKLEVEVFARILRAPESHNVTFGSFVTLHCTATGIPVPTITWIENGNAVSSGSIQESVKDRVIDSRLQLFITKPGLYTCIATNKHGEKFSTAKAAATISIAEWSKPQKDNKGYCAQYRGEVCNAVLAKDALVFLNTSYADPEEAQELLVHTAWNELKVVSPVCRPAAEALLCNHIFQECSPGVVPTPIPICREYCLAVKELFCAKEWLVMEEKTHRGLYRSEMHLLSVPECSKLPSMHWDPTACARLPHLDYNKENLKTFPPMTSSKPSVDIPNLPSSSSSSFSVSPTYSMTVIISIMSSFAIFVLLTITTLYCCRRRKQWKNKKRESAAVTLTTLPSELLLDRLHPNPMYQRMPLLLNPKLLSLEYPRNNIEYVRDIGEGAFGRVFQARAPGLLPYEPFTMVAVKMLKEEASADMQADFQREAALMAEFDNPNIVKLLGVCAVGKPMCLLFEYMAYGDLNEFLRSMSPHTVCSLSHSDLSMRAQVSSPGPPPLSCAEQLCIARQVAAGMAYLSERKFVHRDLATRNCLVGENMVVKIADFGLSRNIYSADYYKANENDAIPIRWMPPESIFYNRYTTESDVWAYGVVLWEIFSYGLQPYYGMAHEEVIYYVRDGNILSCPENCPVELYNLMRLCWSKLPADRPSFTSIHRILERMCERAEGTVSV

[32] = biological target: Death-associated protein kinase 3 (Homo sapiens) (UniProt O43293); conditions: Compound concentration 1000.0 nM
[33] = test system: Epidermal growth factor receptor (Homo sapiens), P00533 [UNDEFINED MUTATION]; conditions: Compound concentration 1000.0 nM
[34] = biological target: Activin receptor type-2A (Homo sapiens) (UniProt P27037); conditions: Compound concentration 1000.0 nM
Chain of Activin receptor type-2A (Homo sapiens) (P27037 whole entry): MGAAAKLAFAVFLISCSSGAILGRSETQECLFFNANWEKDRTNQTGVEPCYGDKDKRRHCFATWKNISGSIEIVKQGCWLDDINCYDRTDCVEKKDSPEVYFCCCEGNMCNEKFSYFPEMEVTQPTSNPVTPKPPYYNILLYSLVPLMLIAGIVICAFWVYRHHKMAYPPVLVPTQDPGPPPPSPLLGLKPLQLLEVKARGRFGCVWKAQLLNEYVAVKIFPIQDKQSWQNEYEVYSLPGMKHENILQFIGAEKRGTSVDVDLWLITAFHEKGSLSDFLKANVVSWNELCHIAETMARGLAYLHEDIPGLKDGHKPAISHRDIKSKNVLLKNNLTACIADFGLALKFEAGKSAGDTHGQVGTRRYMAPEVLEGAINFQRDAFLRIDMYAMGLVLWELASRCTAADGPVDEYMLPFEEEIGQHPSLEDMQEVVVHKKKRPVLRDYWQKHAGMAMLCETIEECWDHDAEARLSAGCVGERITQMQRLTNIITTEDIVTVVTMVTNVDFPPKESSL

[35] = test system: Tyrosine-protein kinase ABL1 (Homo sapiens), P00519 [T315I]; conditions: Compound concentration 1000.0 nM
[36] = biological target: Serine/threonine-protein kinase Nek5 (Homo sapiens) (UniProt Q6P3R8); conditions: Compound concentration 1000.0 nM
[37] = biological target: Cyclin-dependent kinase 4 (Homo sapiens) (UniProt P11802); conditions: Compound concentration 1000.0 nM
[38] = biological target: Sigma non-opioid intracellular receptor 1 (Homo sapiens) (UniProt Q99720); conditions: Compound concentration 10.0 uM
[39] = biological target: NUAK family SNF1-like kinase 1 (Homo sapiens) (UniProt O60285); conditions: Compound concentration 1000.0 nM
[40] = test system: Mast/stem cell growth factor receptor Kit (Homo sapiens), P10721 [D816H]; conditions: Compound concentration 1000.0 nM
[41] = biological target: Cyclin-dependent kinase 15 (Homo sapiens) (UniProt Q96Q40); conditions: Compound concentration 1000.0 nM
[42] = biological target: Dual specificity protein kinase TTK (Homo sapiens) (UniProt P33981); conditions: Compound concentration 1000.0 nM

O=C(NCc1ncc(C(F)(F)F)cc1Cl)c1ccc2c(c1)C1(CCS(=O)(=O)CC1)[C@@H](C1CC1)N2S(=O)(=O)c1ccc(F)cc1 [BAY-786]
residual activity [1]: 56%
residual activity [2]: 87%
residual activity [3]: 72%
residual activity [4]: 70%
residual activity [5]: 82%
residual activity [6]: 73%
residual activity [7]: 100%
residual activity [8]: 100%
residual activity [9]: 100%
residual activity [10]: 85%
residual activity [11]: 96%
residual activity [12]: 100%
residual activity [13]: 84%
residual activity [14]: 75%
residual activity [15]: 81%
residual activity [16]: 100%
residual activity [17]: 85%
residual activity [18]: 99%
residual activity [19]: 100%
residual activity [20]: 100%
residual activity [21]: 67%
residual activity [22]: 100%
residual activity [23]: 71%
residual activity [24]: 82%
residual activity [25]: 83%
residual activity [26]: 72%
residual activity [27]: 92%
residual activity [28]: 98%
residual activity [29]: 100%
residual activity [30]: 78%
residual activity [31]: 79%
residual activity [32]: 89%
residual activity [33]: 87%
residual activity [34]: 100%
residual activity [35]: 72%
residual activity [36]: 86%
residual activity [37]: 80%
inhibition [38]: 37.6%
residual activity [39]: 88%
residual activity [40]: 64%
residual activity [41]: 69%
residual activity [42]: 100%

O=C(NCc1ncc(C(F)(F)F)cc1Cl)c1ccc2c(c1)C1(CCS(=O)(=O)CC1)[C@H](C1CC1)N2S(=O)(=O)c1ccc(F)cc1 [BAY-784]
residual activity [1]: 93%
residual activity [2]: 76%
residual activity [3]: 69%
residual activity [4]: 100%
residual activity [5]: 100%
residual activity [6]: 84%
residual activity [7]: 0%
residual activity [8]: 100%
residual activity [9]: 100%
residual activity [10]: 83%
residual activity [11]: 97%
residual activity [12]: 100%
residual activity [13]: 92%
residual activity [14]: 68%
residual activity [15]: 87%
residual activity [16]: 82%
residual activity [17]: 87%
residual activity [18]: 88%
residual activity [19]: 78%
residual activity [20]: 100%
residual activity [21]: 78%
residual activity [22]: 100%
residual activity [23]: 100%
residual activity [24]: 100%
residual activity [25]: 80%
residual activity [26]: 81%
residual activity [27]: 91%
residual activity [28]: 86%
residual activity [29]: 100%
residual activity [30]: 88%
residual activity [31]: 100%
residual activity [32]: 90%
residual activity [33]: 100%
residual activity [34]: 86%
residual activity [35]: 57%
residual activity [36]: 100%
residual activity [37]: 93%
inhibition [38]: 17.8%
residual activity [39]: 83%
residual activity [40]: 79%
residual activity [41]: 100%
residual activity [42]: 78%
